The subject of data set [1] is P. falciparum 3D7. Put plainly: IC50 speed assay (24, 48, 72 h). Particulars: P. falciparum 3D7; for Speed of action (IC50 speed assay): IC50 at 24, 48, 72 h compared; for IC50: Plasmodium falciparum. Format: cell-based, Plasmodium falciparum. As for the experimental part:
(§1) The D-sorbitol method (CAS: 50-70-4, Wako, Osaka, Japan) was employed to synchronize parasites, resulting in the attainment of ≥90% ring-stage parasites. These synchronized parasites were then utilized for the experiments within a 2-h window. The assay was performed as follows. First, 50 μL of synchronized parasites with 0.5% parasitemia and 2% hematocrit were added to individual wells of a 96-well plate. Then, 50 μL of the test compounds was introduced to each well. […] Wells containing only test compounds and erythrocytes were included for background correction. […] After the designated incubation time, 100 μL of lysis buffer containing 0.02% (v/v) SYBR Green I was added to each well, the contents of the well were mixed by pipetting, and the plate was incubated in the dark at room temperature for 2 h. […] This assay was repeated four times at each concentration, and the resulting inhibitory values represent the average from three independent trials.

The next data set has as its system P. falciparum K1. The data set is described as follows: In vitro inhibition of P. falciparum K1 (SYBR Green I-based fluorescence assay). Format: cell-based. As to conditions: Plasmodium falciparum; multidrug-resistant strain K1; 72 h incubation; average ± SD, three independent experiments; read-out: IC50 P. falciparum K1. As for the experimental part:
The cultures were maintained in an incubator under specific conditions: 37 °C under 5% CO2 and 5% O2.
as §1
The IC50 or CC50 values were determined from three independent experiments by plotting the logarithmic concentration of the compound against the percent parasite inhibition or cell growth inhibition, respectively. Nonlinear regression analysis was conducted using GraphPad Prism 10 (GraphPad Software, Inc., La Jolla, CA, USA). Comparisons between groups were evaluated using either one-way or two-way ANOVA followed by Tukey's or Fisher's multiple comparisons tests. […] The meaning of each symbol is specified in the corresponding figure legend alongside the name of the employed test.

The next data set can be described thus: Hemolysis rate. Particulars: erythrocytes (red blood cells). Format: cell-based.
The subject of data set [2] is P. falciparum 3D7. Put plainly: Stage-specific microscopy examination (ring, trophozoite, schizont). It is filed as cell-based, Plasmodium falciparum. As to conditions: for Inhibition of the life cycle at 10- and 1-fold IC50: 24 h; for Parasite morphology after 24 h treatment: ring, trophozoite, schizont stages, artemisinin and chloroquine at all concentrations, Compounds 31 and 32 at 100 times IC50. As for the experimental part:
(§2) To ensure uniformity, the parasites underwent a rigorous synchronization process using a two-step sorbitol treatment procedure. This synchronized parasite population was harnessed within a 2-h window for the ring stage, 8–10 h for the trophozoite stage, and 24–26 h for the schizont stage. Subsequent to sorbitol treatment, early trophozoites could be obtained within 6–8 h after the initial sorbitol treatment (within 20 h of development), while early schizonts could be obtained after an additional 16 h of incubation (within 36 h of development). Beyond 36 h, the schizonts mature, causing the rupture of red blood cells (RBCs) and the consequent release of merozoites, which promptly infect new RBCs.
The negative control group consisted of cultures treated solely with complete medium and was designated the no treatment (NT) group. This analysis was repeated three times at each concentration. Following a 24-h incubation period, the culture in a 96-well plate was centrifuged at 1300 g for 5 min to settle down the iRBC; then, the supernatants were removed, and the iRBCs were washed with fresh media at the same volume as the initial culture. The centrifugation and washing were repeated 3 times, allowing the compound to be diluted by approximately 1000 times. Subsequently, thin blood smears from each treatment group were prepared using 1 μL of settled iRBCs. The proportion of parasites affected by the drug, including those with both abnormal and retained morphologies, was calculated by examining 100 parasites and counting the number displaying irregular development. Subsequently, the number of abnormal parasites was divided by the total count and then multiplied by 100 to obtain a percentage. The parameters used to define normal and abnormal morphologies can be found in Table S3 and Fig. S1.

A further data set has as its system P. yoelii 17XNL. Format: in vivo. Particulars: C57BL/6 mice, P. yoelii 17XNL; for Parasitemia compared to the untreated control group: 20 mg/kg daily over 10 days; for Body weight or hematocrit levels / Mortality / Peak of parasitemia, trial 1 / Peak of parasitemia, trial 2: 20 mg/kg i.p. once daily for ten days; for Peak of parasitemia, trial 1: untreated 21.7%; for Peak of parasitemia, trial 2: untreated 28.3%. As for the experimental part: Male C57BL/6 mice, aged eight weeks, were obtained from Japan CLEA (Tokyo, Japan) and housed with six per cage in each group. These mice were kept under conditions of 24 °C, 50% relative humidity, and a light-dark cycle of 8 a.m. to 8 p.m. Access to drinking water and food (CLEA Rodent Diet CE-2; Japan CLEA, Tokyo, Japan) was unrestricted. Prior to experimentation, P. yoelii 17XNL was recovered from cryopreserved erythrocyte stocks via passage in mice. […]. Parasitemia levels were evaluated […] by collecting 2 μL of blood from the mouse tail for thin blood smear preparation. Treatment was initiated upon reaching a parasitemia level of 1%. […]. Parasitemia in infected mice was observed daily by preparing Giemsa-stained thin blood smears (up to 30 dpi). Hematocrit levels were measured every other day using a Celltac-α MEK-6550 (Nihon Kohden, Tokyo, Japan), with 10 μL of blood collected from the mouse tail for each assessment. The animals were handled and treated in accordance with the Guide for the Care and Use of Laboratory Animals by the Ministry of Education, Culture, Sports, Science, and Technology, Japan. Ethical permission for the animal experiment protocols was secured under permit numbers 21–35 and 23–90 from the ethical committee of Obihiro University of Agriculture and Veterinary Medicine.
The median point within this range was selected to maintain a balance between efficacy and safety. Furthermore, a modified Peter's suppression test was utilized to assess the efficacy of antimalarial drugs ([Ager, 1984]; [Peters et al., 1975]). The treatment and observation period were initially set for 4 days. […] […]. […] These findings highlight the effect of the 20 mg/kg/day dosage of Compounds 31 and 32 in reducing parasitemia without causing side effects.

The subject of data set [3] is P. falciparum 3D7. The data set is described as follows: Stage-specific assay on ring and schizont stages (SYBR Green I, 24 h). It is filed as cell-based, Plasmodium falciparum. Particulars: eight concentrations from 100-fold IC50. As for the experimental part: as §2
Wells containing only the test compounds and erythrocytes were included to correct for background activity. The 96-well plates were incubated for 24 h at 37 °C in an atmosphere of 5% CO2 and 5% O2. The growth of P. falciparum 3D7 was detected using a SYBR Green I-based fluorescence assay.

Setting [4] is: 24 h incubation, read-out: IC50 24 h.
[5] abbreviates: 48 h incubation, read-out: IC50 48 h.
The mark [6] stands for this setting: 72 h incubation, read-out: IC50 72 h.

Each structure is given as a SMILES string. Like-named read-outs stand apart in the source and are kept apart here.

What is called IC50 is the midpoint of a concentration-inhibition curve. Regarding `COc1cccc(-c2ncc(-c3ccccc3O)o2)c1OC` [Compound 31, 2-(2′,3′-dimethoxyphenyl)-5-(2″-hydroxyphenyl)oxazole], the “Speed of action (IC50 speed assay)” value with P. falciparum 3D7 [1] is “slow-acting”. The IC50 in the data set with P. falciparum 3D7 [1] (setting [4]) worked out at 45.2 ± 10.6 µM. In addition, in the data set on P. falciparum 3D7 [1] (setting [5]), the half-inhibitory concentration (IC50) turned out to be 18.8 ± 1.86 µM. Also, the IC50 in the data set with P. falciparum 3D7 [1] (setting [6]) was found to be 8.37 ± 1.28 µM. The IC50 in the data set with P. falciparum K1 was 2.66 ± 1.15 µM. In the data set “Hemolysis rate”, the hemolysis at 1000 µM was below 3%. Moreover, in the data set on P. falciparum 3D7 [2], the “Inhibition of the life cycle at 10- and 1-fold IC50” value is given as “only partial inhibition of the life cycle”; the “Parasite morphology after 24 h treatment” value is reported as “abnormal phenotype of ring-stage parasites”. In the data set on P. yoelii 17XNL, the “Parasitemia compared to the untreated control group” value is listed as “significant reduction in parasitemia”; the “Body weight or hematocrit levels” value is recorded as “nor were reductions in body weight or hematocrit levels observed”; the Mortality entry is “no instances of mortality”; the “Peak of parasitemia, trial 1” value amounted to 12.7%. In addition, the “Peak of parasitemia, trial 2” value in the data set on P. yoelii 17XNL worked out at 15.8%. The “Stage specificity (ring and schizont stages)” value in the data set with P. falciparum 3D7 [3] is “classic slow-acting profile, which only gains significant activity at elevated concentrations”.
Take `COc1cccc(-c2ncc(-c3ccccc3OCc3ccccc3)o2)c1OC` [Compound 32, 2-(2′,3′-dimethoxyphenyl)-5-(2″-benzyloxyphenyl)oxazole]: in the data set with P. falciparum 3D7 [1], the “Speed of action (IC50 speed assay)” value is on record as “slow-acting”. Moreover, the IC50 with P. falciparum 3D7 [1] (setting [4]) is 31.2 ± 4.13 µM. Further, the IC50 in the data set with P. falciparum 3D7 [1] (setting [5]) stood at 33.4 ± 2.67 µM. Further, in the data set on P. falciparum 3D7 [1] (setting [6]), the IC50 worked out at 6.25 ± 1.39 µM. Moreover, in the data set on P. falciparum K1, the IC50 came to 4.37 ± 1.7 µM. The compound further came in with a hemolysis at 1000 µM in the data set “Hemolysis rate” below 3%. Also, in the data set with P. falciparum 3D7 [2], the “Inhibition of the life cycle at 10- and 1-fold IC50” value is “only partial inhibition of the life cycle”; the “Parasite morphology after 24 h treatment” value is given as “abnormal phenotype of ring-stage parasites”. For the same compound, in the data set on P. yoelii 17XNL, the “Parasitemia compared to the untreated control group” value is on record as “significant reduction in parasitemia”; the “Body weight or hematocrit levels” value is on record as “nor were reductions in body weight or hematocrit levels observed”; the Mortality entry is “no instances of mortality”; the “Peak of parasitemia, trial 1” value is on record as 12.7%. In the data set on P. yoelii 17XNL, the “Peak of parasitemia, trial 2” value is 14.0%. Further, in the data set with P. falciparum 3D7 [3], the “Stage specificity (ring and schizont stages)” value was “effect on the ring and schizont stages is comparable to those positive controls”.

Source of the values: PMC11067372, “Evaluation of the antiplasmodial efficacy of synthetic 2,5-diphenyloxazole analogs of compounds naturally derived from Oxytropis lanata” (International Journal for Parasitology: Drugs and Drug …, 2024).
